Molecular target: T1, GRK2 (Homo sapiens, UniProt P25098)
T1 sequence (P25098 1-689): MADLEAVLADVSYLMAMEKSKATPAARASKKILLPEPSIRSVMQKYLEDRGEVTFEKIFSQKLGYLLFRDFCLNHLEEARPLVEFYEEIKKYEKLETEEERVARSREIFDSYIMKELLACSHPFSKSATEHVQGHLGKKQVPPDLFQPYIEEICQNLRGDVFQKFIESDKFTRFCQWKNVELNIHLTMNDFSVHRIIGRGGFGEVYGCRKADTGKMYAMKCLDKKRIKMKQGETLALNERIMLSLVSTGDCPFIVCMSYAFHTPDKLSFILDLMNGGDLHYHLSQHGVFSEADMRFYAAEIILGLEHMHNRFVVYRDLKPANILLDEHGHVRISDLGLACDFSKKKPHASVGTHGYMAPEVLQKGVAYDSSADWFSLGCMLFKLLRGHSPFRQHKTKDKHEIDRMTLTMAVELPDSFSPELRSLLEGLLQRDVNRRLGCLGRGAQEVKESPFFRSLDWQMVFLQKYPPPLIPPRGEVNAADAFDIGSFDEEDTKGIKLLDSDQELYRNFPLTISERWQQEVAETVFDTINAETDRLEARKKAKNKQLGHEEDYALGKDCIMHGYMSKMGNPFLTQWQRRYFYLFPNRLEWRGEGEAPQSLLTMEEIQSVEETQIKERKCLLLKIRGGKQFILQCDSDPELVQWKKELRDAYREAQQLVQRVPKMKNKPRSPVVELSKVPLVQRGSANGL
Assay: hGRK2 LANCE Ultra in vitro kinase assay
Type: biochemical
Details: 10 nM GRK2; ATP 30 or 600 μM (not stated which); read-out: GRK2 Lancer IC50
Protocol: hGRK2 LANCER In Vitro Assay
This assay is sensitive and requires as low as 10 nM enzyme, in a total volume of 10 μL. In addition, the ATP concentration can be varied over a broad range, without interfering with the assay or changing the assay condition. […] Testing inhibitors routinely at both high and low ATP concentrations also enables identification of potential non-ATP competitive inhibitors.
This assay measures IC50 values of test compounds (inhibitors) by monitoring GRK2 enzymatic activity at varying inhibitor concentrations.
Test compounds were dissolved in DMSO at 1 mM and were 3-fold serial diluted. The compound DMSO solutions were then added (100 nL) into a plate well using an acoustic dispenser. To each well was then added 20 nM GRK2 (5 μL) in assay buffer (20 mM HEPES, pH 7.5, 10 mM MgCl2, 0.001% Tween-20). The plate was sealed and centrifuged at 1000 rpm for 1 min. The plate and wells containing a mixture of GRK2 and test compound were incubated at ambient temperature for 30 min (prior to initializing the enzymatic reaction).
Enzyme reactions were initiated by the addition of 4.9 μL Substrates/Eu-Ab mix to each well. […] Final concentrations of reagents in the assays were as follows: 20 mM HEPES, pH 7.5; 10 mM MgCl2; 0.001% Tween-20 (w/v); 30 or 600 μM ATP; 200 nM ULight-peptide; 4 nM Eu-Ab; 10 nM GRK2; and 1% DMSO.
The plates were sealed and centrifuged at 1000 rpm for 1 min. For reactions at low ATP concentration (30 μM), reaction mixtures were incubated at ambient temperature for 120 min. For reactions at high ATP concentration (600 μM), reaction mixtures were incubated at ambient temperature for 60 min.
The enzyme reactions were quenched by addition of 10 μL of 12 mM EDTA in 1× LANCE detection solution to each well. The plates were then incubated at ambient temperature for 30 min. Time-resolved fluorescence signal of reactions were read on an EnVision or PHERAstar plate reader with the following parameters: Excitation wavelength=337 nm, emission wavelength (donor)=620 nm; emission wavelength (acceptor)=665 nm.
The raw HTRF data were converted to % active as follows:
% active=(sample−NC)/(PC−NC)*100
where NC is the mean of negative control (reactions without GRK2), and PC is the mean of positive control (reactions with GRK2 but without inhibitor). IC50 values were determined from a 4-parameter fit, using the following equation:
Y=Bottom+(Top−Bottom)/(1+10^((Log IC50-X)*Hill slope)),
where X=log10 of the compound concentration.

Row | IC50 [nM] | SMILES
1 | 8 | O=C1c2cc(-c3cn[nH]c3)ccc2C2CCCCC(c3cccc(O)c3)N12 (single isomer, unassigned) [Compound 2, (7S*)-7-(3-hydroxyphenyl)-3-(1H-pyrazol-4-yl)-7,8,9,10,11,11a-hexahydro-5H-azepino[2,1-a]isoindol-5-one]
2 | 6 | COc1cccc(N2CCCCC3c4ccc(-c5cn[nH]c5)cc4C(=O)N32)c1 (racemic) [Compound 15, (Rac)-1-(3-methoxyphenyl)-8-(1H-pyrazol-4-yl)-1,2,3,4,5,5a-hexahydro-10H-[1,2]diazepino[7,1-a]isoindol-10-one]
3 | 1400 | COc1cccc([C@H]2COCCCCC3c4ccc(-c5cn[nH]c5)cc4C(=O)N32)c1 (mixture of isomers) [Compound 9]
4 | 1010 | COc1cccc([C@H]2COC/C=C\CC3c4ccc(-c5cn[nH]c5)nc4C(=O)N32)c1 (mixture of isomers) [Compound 14]
5 | 11 | COc1cccc(C2CCCCC3c4ccc(-c5cn[nH]c5)cc4C(=O)N23)c1 (single isomer, unassigned) [Compound 5]
6 | < 5 | COc1cccc(C2CCCCC3c4ccc(-c5cn[nH]c5)cc4C(=O)N23)c1 (single isomer, unassigned) [Compound 1, (7R*)-7-(3-methoxyphenyl)-3-(1H-pyrazol-4-yl)-7,8,9,10,11,11a-hexahydro-5H-azepino[2,1-a]isoindol-5-one]
7 | 9 | COc1cc(F)cc(C2CCCCC3c4ccc(-c5cn[nH]c5)cc4C(=O)N23)c1 (stereo not drawn) [Compound 4]
8 | 12 | O=C1c2cc(-c3cn[nH]c3)ccc2C2CCCCC(c3cccc(O)c3)N12 (single isomer, unassigned) [Compound 6, (7R*)-7-(3-hydroxyphenyl)-3-(1H-pyrazol-4-yl)-7,8,9,10,11,11a-hexahydro-5H-azepino[2,1-a]isoindol-5-one]
9 | 8 | COc1cccc(N2CC=CCC3c4ccc(-c5cn[nH]c5)cc4C(=O)N32)c1 (racemic) [Compound 16, 1-(3-methoxyphenyl)-8-(1H-pyrazol-4-yl)-1,2,5,5a-tetrahydro-10H-[1,2]diazepino[7,1-a]isoindol-10-one]
10 | 9 | COc1cccc(C2CCCCC3c4ccc(-c5cn[nH]c5)cc4C(=O)N23)c1 (single isomer, unassigned) [Compound 3, (7S*)-7-(3-methoxyphenyl)-3-(1H-pyrazol-4-yl)-7,8,9,10,11,11a-hexahydro-5H-azepino[2,1-a]isoindol-5-one]
11 | 166 | COc1cccc([C@H]2COC/C=C\CC3c4ccc(-c5cn[nH]c5)cc4C(=O)N32)c1 (mixture of isomers) [Compound 8]
12 | 24 | COc1cc(F)cc(C2CCCCC3c4ccc(-c5cn[nH]c5)cc4C(=O)N23)c1 (stereo not drawn) [Compound 7]

Reference: patent US20220220125A1, “FUSED ISOINDOLIN-1-ONE DERIVATIVES USEFUL AS GRK2 INHIBITORS” (Janssen Pharmaceutica NV, priority 2019, published 2022)
